# How the values were obtained:
# [1] = in vivo; cited from earlier work
# rat type P2X2/3 receptor = target: T1, rat type P2X2/3 receptor (Rattus norvegicus, UniProt P49653+P49654); test: P2X2/3 receptor inhibitory activity ([14C]-guanidine uptake stimulated by αβ-me ATP in CHO cells); type: cell-based; settings: for IC50: CHO cell expressing rat type P2X2/3 receptor, 4 μM αβ-me ATP, [14C]-guanidine, 15 minutes room temperature, read-out: IC50 (concentration which inhibits 50% of the function of P2X2/3 receptor); for P2X2/3,3 receptor inhibitory activity (in words): Table 1
# T1 construct: expressed in transfected cells; host or cells: CHO cells (selected with G-418)
# T1 sequence (P49653 1-472): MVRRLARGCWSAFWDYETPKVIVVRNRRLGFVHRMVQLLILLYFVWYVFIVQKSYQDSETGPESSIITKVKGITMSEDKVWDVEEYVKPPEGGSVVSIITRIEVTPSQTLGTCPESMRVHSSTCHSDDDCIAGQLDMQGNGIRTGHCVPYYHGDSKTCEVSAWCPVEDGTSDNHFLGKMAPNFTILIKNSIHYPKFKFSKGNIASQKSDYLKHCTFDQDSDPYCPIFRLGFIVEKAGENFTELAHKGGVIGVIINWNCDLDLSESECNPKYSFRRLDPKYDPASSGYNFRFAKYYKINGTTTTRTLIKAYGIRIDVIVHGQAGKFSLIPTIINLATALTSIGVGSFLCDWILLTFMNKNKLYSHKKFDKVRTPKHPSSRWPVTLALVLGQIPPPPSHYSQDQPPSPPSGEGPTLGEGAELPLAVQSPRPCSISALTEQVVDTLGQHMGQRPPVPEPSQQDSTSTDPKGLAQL
# T1 sequence (P49654 1-397): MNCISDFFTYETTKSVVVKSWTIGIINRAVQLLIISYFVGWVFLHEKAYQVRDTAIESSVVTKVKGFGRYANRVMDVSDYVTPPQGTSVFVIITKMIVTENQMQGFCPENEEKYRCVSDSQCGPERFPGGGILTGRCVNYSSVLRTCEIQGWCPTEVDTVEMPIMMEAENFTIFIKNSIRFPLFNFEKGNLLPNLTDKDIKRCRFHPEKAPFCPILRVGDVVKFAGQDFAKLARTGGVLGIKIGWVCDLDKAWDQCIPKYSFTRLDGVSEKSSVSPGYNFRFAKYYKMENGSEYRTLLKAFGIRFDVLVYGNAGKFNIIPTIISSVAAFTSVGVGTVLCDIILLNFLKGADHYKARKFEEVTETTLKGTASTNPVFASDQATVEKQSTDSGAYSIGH
# Protocol: On the day before the test, the resulting cells were inoculated onto a 96-well culture plate at a density of about 6×10^4 cells/well and cultured for 24 hours in the medium containing 2 units/ml of apyrase 2.
# [2] = test system: patients of multiple myeloma; settings: oral 6 mg once a day; 24 weeks; cited from earlier work
# mouse = test: Formalin induced pain behavior; type: in vivo
# Protocol: The test substance or solvent was subcutaneously administered to each mouse at a volume of 10 ml/kg. After 30 minutes thereof, formalin was administered under the skin of one sole (2.0%, 20 μl/body). Total time of lifting (a behavior of lifting the administered side sole from the floor face) and licking (a behavior of licking and biting the administered side sole) occurred during every 5 minutes was measured over 30 minutes starting just after the administration of formalin. By defining the period of from 0 to 5 minutes after the formalin administration as a phase I (Phase I), and that of from 10 to 30 minutes as a phase II (Phase II), the total time of lifting and licking occurred in each phase was calculated.
# mice [3] = test: Acetic acid induced pain behavior (writhing); type: in vivo
# Protocol: This test was carried out with reference to the method described in Pain, 96, p. […] After 30 minutes thereof, 0.6% acetic acid was intraperitoneally administered (10 ml/kg). Frequency of writhing (a body writhing behavior) occurred within a period of 15 minutes, starting from 2 minutes after the acetic acid administration until 17 minutes thereafter, was measured. The test was carried out twice as the test 1 and test 2. Test on the statistical significant difference between the solvent administration group used as a control group and the test substance administration group was carried out using the Dunnett method.
# mice [4] = test: αβ-me ATP induced pain behavior; type: in vivo; settings: for αβ-me ATP induced pain behavior (total time of lifting and licking): 30 minutes before αβ-me ATP, significant difference to control
# Protocol: 16 (2000). […] Total time of lifting (a behavior of lifting the administered side sole from the floor face) and licking (a behavior of licking and biting the administered side sole) occurred during 5 minutes just after the administration of αβ-me ATP was measured. […] Test on the statistical significant difference between the solvent administration group used as a control group and the test substance administration group was carried out using the Dunnett method.
# [5] = test system: patients of bone metastasis of breast cancer and bone metastasis of lung cancer; test: Clinical test in patients of bone metastasis of breast cancer and lung cancer; type: in vivo, human; settings: 1 or 2 mg once in 2 weeks for 12 weeks; from the initial evaluation time (1st week)
# cancer patients = settings: clinical test; cited from earlier work
# rat cancer pain model = settings: continuously administered for 19 days; cited from earlier work
compound,measurement,setting,value
O=P(O)(O)C(Cl)(Cl)P(=O)(O)O [clodronate],analgesic action in the tail-flick test,[1],dose-dependent analgesic action
same,IC50,rat type P2X2/3 receptor,> 300 µM
same,"P2X2/3,3 receptor inhibitory activity (in words)",rat type P2X2/3 receptor,"did not show the P2X2/3,3 receptor inhibitory activity"
O=P(O)(O)C(O)(Cc1cnc2ccccn12)P(=O)(O)O [minodronic acid hydrate],bone pain in multiple myeloma patients,[2],improved
same,used amount of an analgesic in multiple myeloma patients,[2],reduced
same,"formalin induced pain behavior, Phase I (0 to 5 minutes)",mouse; 30 mg/kg s.c.,did not exert influence
same,"formalin induced pain behavior, Phase II (10 to 30 minutes)",mouse; 30 mg/kg s.c.,suppressed
same,behavioral side effect at the time of the pain behavior observation,mouse; formalin test,not observed
"O=P(O)(O)C(O)(Cc1cnc2ccccn12)P(=O)(O)O [minodronic acid, 1-hydroxy-2-(imidazo[1,2-a]pyridin-3-yl)ethane-1,1-bisphosphonic acid]",behavioral side effect at the time of the pain behavior observation,mice [3]; acetic acid test,not observed
same,writhing behavior (acetic acid induced),"mice [3]; s.c., 10 and 30 mg/kg, 0.6% acetic acid i.p.",dose-dependently suppressed
same,αβ-me ATP induced pain behavior (total time of lifting and licking),mice [4]; 30 mg/kg i.p.,suppressed
same,αβ-me ATP induced pain behavior (total time of lifting and licking),mice [4]; 10 to 50 mg/kg s.c.,suppressed
same,behavioral side effect at the time of the pain behavior observation,mice [4]; αβ-me ATP test,not observed
same,pain value (bone pain) in patients,[5],reducing tendency of pain value was observed
same,"P2X2/3,3 receptor inhibitory activity (in words)",rat type P2X2/3 receptor,good receptor inhibitory activity
NCCC(O)(P(=O)(O)O)P(=O)(O)O [pamidronate],analgesic action in the tail-flick test,[1],dose-dependent analgesic action
same,IC50,rat type P2X2/3 receptor,> 300 µM
same,"P2X2/3,3 receptor inhibitory activity (in words)",rat type P2X2/3 receptor,"did not show the P2X2/3,3 receptor inhibitory activity"
Cc1ccc(C(=O)Nc2ccc(S(=O)(=O)O)c3cc(S(=O)(=O)O)cc(S(=O)(=O)O)c23)cc1NC(=O)c1cccc(NC(=O)Nc2cccc(C(=O)Nc3cc(C(=O)Nc4ccc(S(=O)(=O)O)c5cc(S(=O)(=O)O)cc(S(=O)(=O)O)c45)ccc3C)c2)c1 [suramin],pain score in cancer patients,cancer patients,reduction of pain score was observed
same,IC50,rat type P2X2/3 receptor,194 µM
O=P(O)(O)C(O)(Cn1ccnc1)P(=O)(O)O [zoledronate],IC50,rat type P2X2/3 receptor,> 300 µM
same,"P2X2/3,3 receptor inhibitory activity (in words)",rat type P2X2/3 receptor,"did not show the P2X2/3,3 receptor inhibitory activity"
same,mechanical allodynia and mechanical hyperalgesia accompanied by cancer pain,rat cancer pain model,inhibit
trinitrophenyl (TNP)-ATP [TNP-ATP],IC50,rat type P2X2/3 receptor,0.18 µM

# — US20070191311A1, “P2x receptor inhibitor” (priority 2004, published 2007)
